Measurements as given in US20070161634A1, “Compounds as CCR5 antagonists” (priority 2004, published 2007).
Where two headings read alike, the source gives them in different places.

What was measured:
[1] = tested on: peripheral blood monouclear cells (PBMC), Jurket; test: MTT cytotoxicity assay; format: cell-based; conditions: at 10,000 nM
Description: (§1) C. MTT Cytotoxicity Assay
(§2) Cells were prepared as single cell suspension, and cell densities were adjusted according to the cell size and cell features. Cells were inoculated with 100 ul culture media into 96 well plates, and incubated in 37° C. incubator (5% CO2, saturated humidity). The seeding densities were as follows: peripheral blood monouclear cells (PBMC) 10^5 cells /well, Jurket 4×10^4 cells/well. 24 h after cell inoculation, the compounds to be tested were added and incubated with cells. 48 h after inoculation, 10 μl MTT (Sigma, USA, 5 mg/ml, diluted with PBS and stored at −20° C.) was added to each well, and incubated for another 4 h in 37° C. incubator. Then add 50 μl formazane solvent (10%SDS-5%isopropanol−0.01M HCl) and incubate overnight. Determine OD570/OD630 nm at spectrophotometer, and calculate CC50 according to the inhibition curve.

MTT cytotoxicity assay = format: cell-based; conditions: human, peripheral blood mononuclear cells (PBMC) and Jurkat cells; MTT
Description: as §1, §2

CXCR4 = CXCR4 (Homo sapiens, UniProt P61073); test: effects on the activation of CXCR4 receptor; conditions: at the concentration of 10,000 nM
Chain of CXCR4 (P61073 whole entry, species assumed): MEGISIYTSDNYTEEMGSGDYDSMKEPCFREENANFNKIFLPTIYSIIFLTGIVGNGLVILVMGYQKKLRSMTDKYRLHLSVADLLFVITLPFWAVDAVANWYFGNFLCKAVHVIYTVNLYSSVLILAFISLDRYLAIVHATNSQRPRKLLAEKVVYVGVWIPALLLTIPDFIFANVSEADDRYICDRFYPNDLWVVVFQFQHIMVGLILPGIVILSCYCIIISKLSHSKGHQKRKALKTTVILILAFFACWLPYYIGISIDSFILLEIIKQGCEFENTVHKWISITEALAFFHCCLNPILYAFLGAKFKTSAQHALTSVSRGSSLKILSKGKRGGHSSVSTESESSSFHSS

CCR1 = molecular target: T1, CCR1 (Homo sapiens, UniProt P32246); test: effects on the activation of CCR1 receptor; conditions: at the concentration of 10,000 nM
T1 sequence (P32246 1-355): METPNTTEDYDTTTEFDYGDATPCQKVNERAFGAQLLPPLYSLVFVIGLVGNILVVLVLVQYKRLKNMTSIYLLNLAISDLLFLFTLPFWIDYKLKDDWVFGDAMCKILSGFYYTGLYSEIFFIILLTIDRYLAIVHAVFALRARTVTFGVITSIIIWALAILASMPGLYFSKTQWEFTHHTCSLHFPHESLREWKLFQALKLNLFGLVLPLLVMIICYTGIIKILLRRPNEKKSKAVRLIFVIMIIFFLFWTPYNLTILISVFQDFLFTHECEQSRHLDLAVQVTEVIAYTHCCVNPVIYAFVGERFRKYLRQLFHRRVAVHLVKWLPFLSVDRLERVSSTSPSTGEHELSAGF

CCR5 receptor = CCR5 receptor (Homo sapiens, UniProt P51681); test: [35S]GTPγS binding assay; format: biochemical
Chain of CCR5 receptor (P51681 whole entry): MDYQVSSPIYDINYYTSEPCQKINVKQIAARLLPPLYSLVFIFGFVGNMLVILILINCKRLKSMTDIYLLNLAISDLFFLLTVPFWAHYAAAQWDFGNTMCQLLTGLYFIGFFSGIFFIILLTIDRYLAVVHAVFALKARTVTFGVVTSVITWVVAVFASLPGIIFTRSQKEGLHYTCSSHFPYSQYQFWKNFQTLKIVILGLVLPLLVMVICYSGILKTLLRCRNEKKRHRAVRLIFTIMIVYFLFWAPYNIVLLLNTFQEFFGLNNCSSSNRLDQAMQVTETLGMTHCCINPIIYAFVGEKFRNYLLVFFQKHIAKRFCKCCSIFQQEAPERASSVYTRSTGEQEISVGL
From the text: [^35S]GTPγS binding assay
CCR5 receptor binds to agonists and changes its conformation which enables it to interact with and activate G protein, a heterotrimer which consists of subunits α and βγ. The capability of G protein α subunit binding to GTP depends on the effect between CCR5 and the agonists, therefore, the amount of α subunit bound GTP should reflect the agonists activity on the CCR5 receptor. In the GTPγS binding assay, [^35S]GTPγS is resistant to the GTPase activity of α subunit, and thus cannot be hydrolyzed when bound to G protein, making it accurate to reflect the receptor activation. Radiolabled [^35S]GTPγS can also serve as marker for detection in place of GTP. When CCR5 is not activated, α subunit is bound to GDP, but when CCR5 is activated, α subunit binds to [^35S]GTPγS, therefore, measurement of the number of the α subunit-bound ^35S-GTPγS can reflect the CCR5 activation level.
CCR5 activation of G-protein was measured according to assays below:
Permanent cell line expressing CHO of CCR5 (available at Euroscreen S.A., Belgium) was lysed by lysis buffer (5 mM Tris HCl, pH 7.5, 5 mM EDTA and 5 mM EGTA), and centrifuged at 15,000×g for 10 min. Cell membrane was resuspended with reaction buffer (5 mM Tris HCl, pH 7.5, 5 mM MgCl2, 1 mM EGTA, 100 mM NaCl), and protein concentrations were determined using Bioford assay (Bio-rad). [^35S]GTPγS binding assay was performed in the 100 μl reaction buffer system, which contains 10 ug membrane protein, 40 uM GDP and 0.5 nM [^35S]GTPγS (1200 Ci/mmol). After adding the study compounds, the system was vortexed and placed on ice for 5 min, and then CCR5 agonist was added (10 nM RANTES or 30 nM MIP1β). After vortexing, the reaction tubes were incubated at 30° C. for 1 h. After the reaction was complete, the reaction tubes were placed on ice and diluted with PBS to terminate the reaction. After suction through the GF/C filter membrane under vacuum, the membrane bound radioactivity was measured with a scintillation counter. Basal binding was measured without presence of agonist, and non-specific binding was measured in the presence of 10 mM nonisotopical GTPγS. The binding ratio of [^35S]GTPγS was calculated according to 100×[c.p.m.sample−c.p.m. non-specific]/[c.p.m.basal−c.p.m. non-specific]. IC50 was the compound concentration at which half of the [^35S]GTPγS binding induced by 10 nM RANTES or 30 nM MIP1β was inhibited, and the value was obtained from the concentration-inhibition curve (6-7 points for concentrations of each compound).

[2] = tested on: HEK 293 cells expressing human CCR5 receptors (293CCR5); test: Chemotaxis assay; format: cell-based; conditions: chemotaxis caused by 10 nM RANTES, read-out: IC50 on cell chemotaxis
Description: The procedures were as follows:
The assay is performed with a 48 well plate (AP48, Neuroprobe Inc., USA) and 8 uM filter membrane (25×80 mm). The filter membrane was pre-immersed in rat tail collagen for at least 2 h. The filter membrane was taken out and dried on a super-clean bench, then the filter membrane was immersed in 0.1% BSA-MEM. HEK 293 cells expressing human CCR5 receptors (293CCR5) (available at Euroscreen S.A., Belgium) were digested with D.T. for 1 min, and pelleted by centrifugation at 200 g. Resuspend the cells in 0.1% BSA-MEM, count and dilute the cell suspension to 3×10^6 cells/ml. Fill each well with 26.5 μl tll of a chemokine dilution or 1% BSA MEM, place the filter membrane and cover a lid on the well, add 50 μl of the cells suspension to each well. When testing the compound antagonism, the compounds to be tested were added to the cell suspension, and pre-incubated at 37° C. for 20 min. Then place the plate in 37° C. incubator, and incubate for 6 h. Take out of the filter membrane and remove the cells in the well, fix the filter membrane in 4% polyformaldehyde solution at 4° C. overnight. The filter membrane was taken out the next day and stained with crystal violet for at least 2 h, then wash with water and allow it to dry. Scan the filter membrane, and calculate the shades with Scion Image. […]

water solubility = format: physicochemical; conditions: mesylate compared with II-a-a
[3] = Table I, [35S]GTPγS binding, read-out: IC50
[4] = [35S]GTPγS binding initiated by 10 nM RANTES, read-out: IC50(nM) ± S.E.

SMILES | activation or antagonism of CXCR4 receptor (CXCR4) | activation or antagonism of CCR1 receptor (CCR1) | IC50 (CCR5 receptor; [3]) [nM] | IC50 (CCR5 receptor; [4]) [nM] | water solubility increase (water solubility) | IC50 (CCR5 receptor; b360, read-out: IC50) [nM] | cytotoxicity on cells [1] | CC50 at 24 h (MTT cytotoxicity assay) [nM] | IC50 [2] [nM]
C=CCN(C(=O)OCc1ccc([N+](=O)[O-])cc1)C1CCN(CC2CN(C(=O)c3ccccc3I)CC2(O)c2ccccc2)CC1 (stereo not drawn) [III-a-c, 4-nitrobenzyl allyl(1-((4-hydroxy-1-(2-iodobenzoyl)-4-phenylpyrrolidin-3-yl)methyl)piperidin-4-yl)carbamate] | do not activate or antagonize | do not activate or antagonize | 24.9 ± 8.8 | 24.9 ± 8.8 |  |  | no significant cytotoxicity | ~30000 | 
C=CCN(C(=O)OCc1ccc([N+](=O)[O-])cc1)C1CCN(CC2CN(C(=O)c3cccc4ccccc34)CC2(O)c2ccccc2)CC1 (stereo not drawn) [III-a-d, 4-nitrobenzyl 1-((1-(1-naphthoyl)-4-hydroxy-4-phenylpyrrolidin-3-yl)methyl)piperidin-4-yl(allyl)carbamate] | do not activate or antagonize | do not activate or antagonize | 26.8 ± 2 | 26.8 ± 2 |  |  | no significant cytotoxicity | ~30000 | 
C=CCN(C(=O)OCc1ccc([N+](=O)[O-])cc1)C1CCN(CC2CN(C(=O)C3CCCC3)CC2(O)c2ccccc2)CC1 (stereo not drawn) [III-a-e, 4-nitrobenzyl allyl(1-((1-(cyclopentanecarbonyl)-4-hydroxy-4-phenylpyrrolidin-3-yl)methyl)piperidin-4-yl)carbamate] | do not activate or antagonize | do not activate or antagonize | 5.3 ± 0.6 | 5.3 ± 0.6 |  |  | no significant cytotoxicity | ~30000 | ~30

Second part, led by results:

activation or antagonism of CXCR4 receptor (CXCR4) | activation or antagonism of CCR1 receptor (CCR1) | IC50 (CCR5 receptor; [3]) [nM] | IC50 (CCR5 receptor; [4]) [nM] | water solubility increase (water solubility) | IC50 (CCR5 receptor; b360, read-out: IC50) [nM] | SMILES | cytotoxicity on cells [1] | CC50 at 24 h (MTT cytotoxicity assay) [nM] | IC50 [2] [nM]
do not activate or antagonize | do not activate or antagonize | 7.3 | 7.3 ± 0.6 |  |  | C=CCN(C(=O)OCc1ccc([N+](=O)[O-])cc1)C1CCN(CC2CN(C(=O)C3CCCCC3)CC2(O)c2ccccc2)CC1 (stereo not drawn) [III-a-f, 4-nitrobenzyl allyl(1-((1-(cyclohexanecarbonyl)-4-hydroxy-4-phenylpyrrolidin-3-yl)methyl)piperidin-4-yl)carbamate] | no significant cytotoxicity | ~30000 | 
 |  |  |  | about 10 fold | 342 ± 72.5 | CCN(C(=O)OCc1ccccc1)C1CCN(CC2CN(Cc3ccccc3)CC2(O)c2ccccc2)CC1 (stereo not drawn) [mesylate of II-a-a] |  |  | 
